US11220510B2, “Pyrrole tricyclic compounds as A2A / A2B inhibitors” (Incyte Corporation, priority 2018, dated 2022)
pEC50, pKi: −log10 of the molar value.

Tests used:
[1] = target: Adenosine A2A receptor (Tag-lite Adenosine A2A labeled cells) (Homo sapiens (Human), UniProt P29274); experiment: A2A Tag-lite HTRF assay (fluorescent ligand displacement); conditions: Red antagonist fluorescent ligand 12.5 nM, one-site competitive binding model, read-out: A2A_Ki
Description: Example C. A2A Tag-Lite® HTRF Assay
The final concentration of DMSO was 1%.

[2] = target: human adenosine A2B receptor (Homo sapiens (Human), UniProt P29275); experiment: Adenosine A2B Receptor Cyclic AMP GS Assay; format: cell-based; conditions: HEK-293 cells expressing human A2B; agonist NECA 12 nM; cAMP accumulation by FRET; read-out: A2B_cAMP_EC50
human adenosine A2B receptor, sequence (P29275 whole entry): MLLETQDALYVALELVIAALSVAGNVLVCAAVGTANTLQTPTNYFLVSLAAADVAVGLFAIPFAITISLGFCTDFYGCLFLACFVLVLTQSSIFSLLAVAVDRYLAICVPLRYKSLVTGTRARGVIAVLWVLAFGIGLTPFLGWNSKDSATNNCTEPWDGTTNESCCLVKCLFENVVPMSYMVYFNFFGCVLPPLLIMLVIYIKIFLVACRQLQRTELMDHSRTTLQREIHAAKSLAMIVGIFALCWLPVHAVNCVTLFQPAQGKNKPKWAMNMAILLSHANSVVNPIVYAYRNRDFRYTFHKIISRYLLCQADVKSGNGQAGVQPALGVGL
Experimental: Example B. Adenosine A2B Receptor Cyclic AMP GS Assay Stably transfected HEK-293 cells expressing the human adenosine A2B receptor (Perkin Elmer) were maintained in MEM culture medium with 10% FBS and 100 μg/ml Geneticin (Life Technologies). 18 to 24 hours prior to assay, geneticin was removed from culture. The cisbio cAMP-GS Dynamic kit utilizing the FRET (Fluorescence Resonance Energy Transfer) technology was used to measure cAMP accumulation in the cells. Compounds of the present disclosure at an appropriate concentration were mixed with 10000 cells/well in white 96 well half area plates (Perkin Elmer) for 30 min at room temperature gently shaking. Agonist, NECA (R&D Technologies) at 12 nM was added to each well for 60 min at room temperature gently shaking. Detection reagents, d2-labeled cAMP (acceptor) and anti-cAMP cryptate (donor) were added to each well for 60 min at RT gently shaking. Plates were read on Pherastar (BMG Labtech), fluorescence ratio 665/620 was calculated and EC50 determination was performed by fitting the curve of percent of control versus the log of the compound concentration using GraphPad Prism.

Adenosine A2A receptor (Tag-lite Adenosine A2A labeled cells), sequence (P29274 whole entry): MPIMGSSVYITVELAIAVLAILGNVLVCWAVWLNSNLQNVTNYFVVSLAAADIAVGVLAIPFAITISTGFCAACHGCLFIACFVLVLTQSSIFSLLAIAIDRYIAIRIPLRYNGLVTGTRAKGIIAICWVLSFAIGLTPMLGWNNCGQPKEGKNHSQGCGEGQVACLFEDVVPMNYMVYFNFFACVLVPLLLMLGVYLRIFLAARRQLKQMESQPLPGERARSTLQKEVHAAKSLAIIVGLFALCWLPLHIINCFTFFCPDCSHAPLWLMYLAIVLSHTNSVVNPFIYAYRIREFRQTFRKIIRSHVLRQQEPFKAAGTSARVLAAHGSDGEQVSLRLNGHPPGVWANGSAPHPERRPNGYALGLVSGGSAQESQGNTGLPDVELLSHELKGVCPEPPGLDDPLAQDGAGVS

SMILES | pKi [1] | pEC50 [2]
CCCCCn1c2cc(-c3cnn(Cc4ccccc4)c3)[nH]c2c(=O)n2c(C)nnc12 [Example 10, 7-(1-Benzyl-1H-pyrazol-4-yl)-3-methyl-9-pentyl-6,9-dihydro-5H-pyrrolo[3,2-d][1,2,4]triazolo[4,3-a]pyrimidin-5-one] | > 8.00 | 
CCCCn1c2cc(-c3cnn(C4CN(c5nccc(N)n5)C4)c3)[nH]c2c(=O)n2c(C)nnc12 [Example 28, 7-(1-(1-(4-Aminopyrimidin-2-yl)azetidin-3-yl)-1H-pyrazol-4-yl)-9-butyl-3-methyl-6,9-dihydro-5H-pyrrolo[3,2-d][1,2,4]triazolo[4,3-a]pyrimidin-5-one] | > 8.00 | 7.00 to 8.00
CCCCCn1c2cc(-c3cnn(Cc4cncc(C)c4)c3)[nH]c2c(=O)n2c(C)nnc12 [Example 3, 3-Methyl-7-(1-((5-methylpyridin-3-yl)methyl)-1H-pyrazol-4-yl)-9-pentyl-6,9-dihydro-5H-pyrrolo[3,2-d][1,2,4]triazolo[4,3-a]pyrimidin-5-one] | > 8.00 | > 8.00
CCCCCn1c2c(Br)c[nH]c2c(=O)n2c(C)nnc12 [Example 13, 8-Bromo-3-methyl-9-pentyl-6,9-dihydro-5H-pyrrolo[3,2-d][1,2,4]triazolo[4,3-a]pyrimidin-5-one] | 7.00 to 8.00 | 
CCCCCn1c2cc(-c3cnn(Cc4cnc5ccsc5c4)c3)[nH]c2c(=O)n2c(C)nnc12 [Example 4, 3-Methyl-9-pentyl-7-(1-(thieno[3,2-b]pyridin-6-ylmethyl)-1H-pyrazol-4-yl)-6,9-dihydro-5H-pyrrolo[3,2-d][1,2,4]triazolo[4,3-a]pyrimidin-5-one] | > 8.00 | > 8.00
CCCCCn1c2cc(-c3cnn(Cc4cnc5cccnc5c4)c3)[nH]c2c(=O)n2c(C)nnc12 [Example 6, 7-(1-((1,5-Naphthyridin-3-yl)methyl)-1H-pyrazol-4-yl)-3-methyl-9-pentyl-6,9-dihydro-5H-pyrrolo[3,2-d][1,2,4]triazolo[4,3-a]pyrimidin-5-one] | > 8.00 | 7.00 to 8.00
CCCCCn1c2cc(-c3cnn(C4CN(c5nccc(N)n5)C4)c3)[nH]c2c(=O)n2c(C)nnc12 [Example 21, 7-(1-(1-(4-Aminopyrimidin-2-yl)azetidin-3-yl)-1H-pyrazol-4-yl)-3-methyl-9-pentyl-6,9-dihydro-5H-pyrrolo[3,2-d][1,2,4]triazolo[4,3-a]pyrimidin-5-one] | > 8.00 | 7.00 to 8.00
CCCCn1c2cc(-c3cnn(C4CN(c5ncccn5)C4)c3)[nH]c2c(=O)n2c(C)nnc12 [Example 24, 9-Butyl-3-methyl-7-(1-(1-(pyrimidin-2-yl)azetidin-3-yl)-1H-pyrazol-4-yl)-6,9-dihydro-5H-pyrrolo[3,2-d][1,2,4]triazolo[4,3-a]pyrimidin-5-one] | > 8.00 | 7.00 to 8.00
CCCCn1c2cc(-c3cnn(C4CN(c5ncc(F)c(N)n5)C4)c3)[nH]c2c(=O)n2c(C)nnc12 [Example 29, 7-(1-(1-(4-Amino-5-fluoropyrimidin-2-yl)azetidin-3-yl)-1H-pyrazol-4-yl)-9-butyl-3-methyl-6,9-dihydro-5H-pyrrolo[3,2-d][1,2,4]triazolo[4,3-a]pyrimidin-5-one] | > 8.00 | 7.00 to 8.00
CCCCCn1c2cc[nH]c2c(=O)n2c(C)cnc12 [Example 18, 7-Methyl-4-pentyl-1H-imidazo[1,2-a]pyrrolo[3,2-d]pyrimidin-9(4H)-one] | 7.00 to 8.00 | 
CCCCn1c2cc(-c3cnn(C4CN(c5nccc(C#N)n5)C4)c3)[nH]c2c(=O)n2c(C)nnc12 [Example 25, 2-(3-(4-(9-Butyl-3-methyl-5-oxo-6,9-dihydro-5H-pyrrolo[3,2-d][1,2,4]triazolo[4,3-a]pyrimidin-7-yl)-1H-pyrazol-1-yl)azetidin-1-yl)pyrimidine-4-carbonitrile] | > 8.00 | 7.00 to 8.00
CCCCCn1c2cc(-c3cnn(Cc4ccn5ccnc5c4)c3)[nH]c2c(=O)n2c(C)nnc12 [Example 5, 7-(1-(Imidazo[1,2-a]pyridin-7-ylmethyl)-1H-pyrazol-4-yl)-3-methyl-9-pentyl-6,9-dihydro-5H-pyrrolo[3,2-d][1,2,4]triazolo[4,3-a]pyrimidin-5-one] | > 8.00 | 7.00 to 8.00
CCCCn1c2cc(-c3cnn(C4CN(c5nccc(OC)n5)C4)c3)[nH]c2c(=O)n2c(C)nnc12 [Example 27, 9-Butyl-7-(1-(1-(4-methoxypyrimidin-2-yl)azetidin-3-yl)-1H-pyrazol-4-yl)-3-methyl-6,9-dihydro-5H-pyrrolo[3,2-d][1,2,4]triazolo[4,3-a]pyrimidin-5-one] | > 8.00 | 7.00 to 8.00
CCCCCn1c2c(C)c[nH]c2c(=O)n2c(C)nnc12 [Example 14, 3,8-Dimethyl-9-pentyl-6,9-dihydro-5H-pyrrolo[3,2-d][1,2,4]triazolo[4,3-a]pyrimidin-5-one] | 6.00 to 7.00 | 
CCCCCn1c2cc(-c3cnn(Cc4cnc5cccnc5c4)c3)[nH]c2c(=O)n2c(C(F)(F)F)nnc12 [Example 12, 7-(1-((1,5-Naphthyridin-3-yl)methyl)-1H-pyrazol-4-yl)-9-pentyl-3-(trifluoromethyl)-6,9-dihydro-5H-pyrrolo[3,2-d][1,2,4]triazolo[4,3-a]pyrimidin-5-one] | > 8.00 | > 8.00
CCCCCn1c2cc(-c3cnn(Cc4cnc5cnn(C)c5c4)c3)[nH]c2c(=O)n2c(C)nnc12 [Example 7, 3-Methyl-7-(1-((1-methyl-1H-pyrazolo[4,3-b]pyridin-6-yl)methyl)-1H-pyrazol-4-yl)-9-pentyl-6,9-dihydro-5H-pyrrolo[3,2-d][1,2,4]triazolo[4,3-a]pyrimidin-5-one] | > 8.00 | 7.00 to 8.00
CCCCCn1c2cc(-c3cnn(Cc4cccnc4)c3)[nH]c2c(=O)n2c(C)nnc12 [Example 8, 3-Methyl-9-pentyl-7-(1-(pyridin-3-ylmethyl)-1H-pyrazol-4-yl)-6,9-dihydro-5H-pyrrolo[3,2-d][1,2,4]triazolo[4,3-a]pyrimidin-5-one] | > 8.00 | 7.00 to 8.00
CCCCCn1c2cc[nH]c2c(=O)n2c(C)nnc12 [Example 1, 3-Methyl-9-pentyl-6,9-dihydro-5H-pyrrolo[3,2-d][1,2,4]triazolo[4,3-a]pyrimidin-5-one] | 6.00 to 7.00 | 
CCCCCn1c2c(-c3cnn(Cc4ccccc4)c3)c[nH]c2c(=O)n2c(C)nnc12 [Example 17, 8-(1-Benzyl-1H-pyrazol-4-yl)-3-methyl-9-pentyl-6,9-dihydro-5H-pyrrolo[3,2-d][1,2,4]triazolo[4,3-a]pyrimidin-5-one] | 6.00 to 7.00 | 
CCCCn1c2cc(-c3cnn(C4CN(c5nccc(C)n5)C4)c3)[nH]c2c(=O)n2c(C)nnc12 [Example 26, 9-Butyl-3-methyl-7-(1-(1-(4-methylpyrimidin-2-yl)azetidin-3-yl)-1H-pyrazol-4-yl)-6,9-dihydro-5H-pyrrolo[3,2-d][1,2,4]triazolo[4,3-a]pyrimidin-5-one] | > 8.00 | 7.00 to 8.00
CCCCCn1c2cc(-c3ccc(S(=O)(=O)Nc4ccc(C)cc4)cc3)[nH]c2c(=O)n2c(C)nnc12 [Example 11, 4-(3-Methyl-5-oxo-9-pentyl-6,9-dihydro-5H-pyrrolo[3,2-d][1,2,4]triazolo[4,3-a]pyrimidin-7-yl)-N-p-tolylbenzenesulfonamide] | 7.00 to 8.00 | 
CCCCCn1c2cc(-c3cnn(Cc4ccc5c(c4)CCN(C(=O)CN(C)C)C5)c3)[nH]c2c(=O)n2c(C)nnc12 [Example 30, 7-(1-((2-(2-(Dimethylamino)acetyl)-1,2,3,4-tetrahydroisoquinolin-6-yl)methyl)-1H-pyrazol-4-yl)-3-methyl-9-pentyl-6,9-dihydro-5H-pyrrolo[3,2-d][1,2,4]triazolo[4,3-a]pyrimidin-5-one] | > 8.00 | > 8.00
CCCCCn1c2cc(-c3cnn(C4CN(c5nccc(NC)n5)C4)c3)[nH]c2c(=O)n2c(C)nnc12 [Example 23, 3-Methyl-7-(1-(1-(4-(methylamino)pyrimidin-2-yl)azetidin-3-yl)-1H-pyrazol-4-yl)-9-pentyl-6,9-dihydro-5H-pyrrolo[3,2-d][1,2,4]triazolo[4,3-a]pyrimidin-5-one] | > 8.00 | 7.00 to 8.00
CCCCCn1c2cc(-c3cnn(C4CN(c5nccc(NCCO)n5)C4)c3)[nH]c2c(=O)n2c(C)nnc12 [Example 22, 7-(1-(1-(4-(2-Hydroxyethylamino)pyrimidin-2-yl)azetidin-3-yl)-1H-pyrazol-4-yl)-3-methyl-9-pentyl-6,9-dihydro-5H-pyrrolo[3,2-d][1,2,4]triazolo[4,3-a]pyrimidin-5-one] | > 8.00 | 7.00 to 8.00
CCCCCn1c2c(C#N)c[nH]c2c(=O)n2c(C)nnc12 [Example 16, 3-Methyl-5-oxo-9-pentyl-6,9-dihydro-5H-pyrrolo[3,2-d][1,2,4]triazolo[4,3-a]pyrimidine-8-carbonitrile] | 6.00 to 7.00 | 
CCCCCn1c2c(-c3ccccc3)c[nH]c2c(=O)n2c(C)nnc12 [Example 15, 3-Methyl-9-pentyl-8-phenyl-6,9-dihydro-5H-pyrrolo[3,2-d][1,2,4]triazolo[4,3-a]pyrimidin-5-one] | 6.00 to 7.00 | 
